From PMC4632126, “High specific selectivity and Membrane-Active Mechanism of the synthetic centrosymmetric α-helical peptides with Gly-Gly pairs” (Scientific Reports, 2015)
Where no end group is shown, it is not given here.

Experiments:
E. coli UB1005 = assay type: cell-based, Escherichia coli; conditions: UB1005, 5 h
Experimental: (§1) Minimal bactericidal concentrations (MBCs) were measured using the method which has been adopted from National Committee for Clinical Laboratory Standards (NCCLS), with modifications. In short, 50 μL peptide solutions were pipetted into microtiter plates at various concentrations ranging from 1 to 128 μM. Freshly grown bacteria were added to the each well in a density of 0.5–1 × 10^6 CFUmL^−1. Microtiter plated was incubated at 37 °C for 5 h. Fifty microliters of each incubation mixture was further serially diluted (up to 10^−3 of the initial bacterial concentration), transferred on agar plates and incubated overnight. On the following day, the number of colonies was evaluated and the initial CFU/well retrospectively calculated. The minimum bactericidal concentrations (μM) were determined as the lowest concentration of the peptides that prevented more than 99.9% bacteria growth.

E. coli ATCC 25922 [1] = assay type: cell-based, Escherichia coli; conditions: ATCC 25922, 5 h
Experimental: as §1

[2] = test system: all of the 6 strains tested; assay: Geometric mean of MBCs and therapeutic index, all strains; assay type: cell-based; conditions: MHC/GM for all 6 strains; >128 counted as 256 μM
Experimental: as §1, with “In” for “Minimal bactericidal concentrations (MBCs) were measured using the method which has been adopted from National Committee for Clinical Laboratory Standards (NCCLS), with modifications. In”
(§2) The therapeutic index (TI) is calculated by the ration of the minimum hemolytic concentration (MHC) to the geometric mean of the MBC (GM) to evaluate cell selectivity of peptides.

S. epidermidis ATCC12228 = assay type: cell-based, Staphylococcus epidermidis; conditions: ATCC12228, 5 h
Experimental: In short, 50 μL peptide solutions were pipetted into microtiter plates at various concentrations ranging from 1 to 128 μM. Freshly grown bacteria were added to the each well in a density of 0.5–1 × 10^6 CFUmL^−1. Microtiter plated was incubated at 37 °C for 5 h. Fifty microliters of each incubation mixture was further serially diluted (up to 10^−3 of the initial bacterial concentration), transferred on agar plates and incubated overnight. On the following day, the number of colonies was evaluated and the initial CFU/well retrospectively calculated. The minimum bactericidal concentrations (μM) were determined as the lowest concentration of the peptides that prevented more than 99.9% bacteria growth. Each test was reproduced at least 3 times using 6 replicates.

S. aureus ATCC29213 = assay type: cell-based, Staphylococcus aureus; conditions: ATCC 29213, 5 h
Experimental: as §1

[3] = test system: human red blood cells (hRBCs); assay: Hemolytic activity; conditions: concentration causing 5% hemolysis of human red blood cells; about 1% hRBC in PBS, 37 °C, 1 h, OD 576 nm
Experimental: The hemolytic activity of each peptide was evaluated using a modified method, as described previously[21][22]. […] Then, the collected hRBCs were washed three times with PBS (pH 7.2), centrifuged at 1000 × g for 5 min, and resuspended in PBS (final concentration, approximately 1%). Next, 50 μL of the hRBC suspension was placed into a 96-well cell culture plate with 50 μL of test peptide solution in PBS at different concentrations, and the mixture was incubated at 37 °C for 1 h. After incubation, the plate was centrifuged at 1000 × g for 5 min, the supernatant was transferred to a new 96-well cell culture plate, and the release of hemoglobin was measured by monitoring optical density (OD) at 576 nm. Untreated hRBCs suspension was used as a negative control, and the hRBCs treated with 0.1% Triton X-100 were employed as positive controls. Each test was reproduced at least 3 times using 6 replicates. Percent hemolysis was calculated using the following equation:

[4] = test system: 3 gram-positive strains tested; conditions: MHC/GM for 3 gram-positive strains; >128 counted as 256 μM
Experimental: as §1, with “In” for “Minimal bactericidal concentrations (MBCs) were measured using the method which has been adopted from National Committee for Clinical Laboratory Standards (NCCLS), with modifications. In”
as §2

[5] = test system: 3 gram-negative strains tested; assay: Geometric mean of MBCs and therapeutic index, gram-negative strains; assay type: cell-based; conditions: MHC/GM for 3 gram-negative strains; >128 counted as 256 μM
Experimental: as §1, with “In” for “Minimal bactericidal concentrations (MBCs) were measured using the method which has been adopted from National Committee for Clinical Laboratory Standards (NCCLS), with modifications. In”
as §2

S. typhimurium ATCC14028 = assay type: cell-based, Salmonella typhimurium; conditions: ATCC14028, 5 h
Experimental: as §1

[6] = test system: Methicillin-resistant S. aureus ATCC 43300; conditions: S. aureus 43300 (methicillin-resistant); lowest concentration preventing more than 99.9% growth; 37 °C, 5 h; representative of three trials
Experimental: as §1, with “In” for “Minimal bactericidal concentrations (MBCs) were measured using the method which has been adopted from National Committee for Clinical Laboratory Standards (NCCLS), with modifications. In”

E. coli ATCC 25922 [7] = assay type: cell-based, Escherichia coli; conditions: ATCC 25922, 5 h; remark: listed apart in the source
Experimental: as §1, with “In short, 50 μL peptide solutions were pipetted into microtiter plates at various concentrations ranging from 1 to 128 μM.” left out, “growth. […] The salt sensitivity of the peptides was measured using a modified method, as described previously. […] The subsequent steps were consistent with the MBCs determination method.” for “growth.”

E. coli ATCC 25922 [8] = assay type: cell-based, Escherichia coli; conditions: ATCC 25922, 24 h
Experimental: The checkerboard titration method is commonly used to evaluate the synergy of different antibacterial combinations. First, 2-fold serial dilutions of the antibiotics and antimicrobial peptides were prepared. Subsequently, 50 μL each of different concentrations of antibiotics and of antimicrobial peptides was mixed and added into 100 μL of bacterial solution (containing approximately 0.5–1 × 10^6 CFU mL^−1) in each well of a 96-well plate. The plates were then incubated at 37 °C for 24 h. The subsequent steps were consistent with the MBCs determination method. The fractional inhibitory concentration (FIC) index (FICI) was calculated as follows: An FICI < 0.5 is considered to indicate synergy; 0.5 < FICI < 1.0 is considered additive; 1.0 < FICI < 4.0 is considered indifferent; and an FICI > 4.0 is considered antagonism.

S. aureus ATCC 29213 = assay type: cell-based, Staphylococcus aureus; conditions: ATCC 29213, 5 h
Experimental: as §1, with “In short, 50 μL peptide solutions were pipetted into microtiter plates at various concentrations ranging from 1 to 128 μM.” left out, “growth. […] The salt sensitivity of the peptides was measured using a modified method, as described previously. […] The subsequent steps were consistent with the MBCs determination method.” for “growth.”

Substance | Minimum bactericidal concentration (E. coli UB1005) [µM] | Minimum bactericidal concentration (E. coli ATCC 25922 [1]) [µM] | TI (therapeutic index), all strains [2] | Minimum bactericidal concentration (S. epidermidis ATCC12228) [µM] | Minimum bactericidal concentration (S. aureus ATCC29213) [µM] | MHC (minimum hemolytic concentration) [3] [µM] | TI (therapeutic index), gram-positive [4] | TI (therapeutic index), gram-negative [5] | Minimum bactericidal concentration (S. typhimurium ATCC14028) [µM] | Minimum bactericidal concentration [6] [µM] | MBC with CaCl2 (E. coli ATCC 25922 [7]) [µM] | MBC with FeCl3 (E. coli ATCC 25922 [7]) [µM] | MBC with KCl (E. coli ATCC 25922 [7]) [µM] | MBC with MgCl2 (E. coli ATCC 25922 [7]) [µM] | MBC with NH4Cl (E. coli ATCC 25922 [7]) [µM] | MBC with NaCl (E. coli ATCC 25922 [7]) [µM] | MBC with ZnCl2 (E. coli ATCC 25922 [7]) [µM] | MBC, control (E. coli ATCC 25922 [7]) [µM] | MBC with CaCl2 (S. aureus ATCC 29213) [µM] | MBC with FeCl3 (S. aureus ATCC 29213) [µM] | also measured
AKLWALKAKLWALKAKLWALK-NH2 [AA3s1] | 4 | 2 | 1.41 | 64 | 16 | 16 | 0.63 | 3.17 | 16 | 16 | – | – | – | – | – | – | – | – | – | – | –
AKLWLKAAKLWLKA-NH2 [AA2] | 8 | 1 | 12.70 | 32 | 16 | 128 | 6.35 | 25.40 | 16 | 16 | 4 | 1 | 1 | 2 | 1 | 2 | 1 | 1 | 64 | 16 | FIC index in combination with Ceftazidime (E. coli ATCC 25922 [8]): 1; FIC index in combination with Chloramphenicol (E. coli ATCC 25922 [8]): 1; FIC index in combination with Ciprofloxacin (E. coli ATCC 25922 [8]): 0.75; FIC index in combination with Streptomycin (E. coli ATCC 25922 [8]): 0.5; MBC with KCl (S. aureus ATCC 29213): 16 µM; MBC with MgCl2 (S. aureus ATCC 29213): 32 µM; MBC with NH4Cl (S. aureus ATCC 29213): 8 µM; MBC with NaCl (S. aureus ATCC 29213): 128 µM; MBC with ZnCl2 (S. aureus ATCC 29213): 8 µM; MBC, control (S. aureus ATCC 29213): 16 µM
AKLWLKAAKLWLKAAKLWLKA-NH2 [AA3] | 2 | 2 | 2.52 | 4 | 4 | 8 | 2 | 3.17 | 4 | 4 | 2 | 2 | 1 | 2 | 2 | 2 | 1 | 2 | 4 | 4 | FIC index in combination with Ceftazidime (E. coli ATCC 25922 [8]): 1; FIC index in combination with Chloramphenicol (E. coli ATCC 25922 [8]): 1; FIC index in combination with Ciprofloxacin (E. coli ATCC 25922 [8]): 2; MBC with KCl (S. aureus ATCC 29213): 4 µM; MBC with MgCl2 (S. aureus ATCC 29213): 4 µM; MBC with NH4Cl (S. aureus ATCC 29213): 4 µM; MBC with NaCl (S. aureus ATCC 29213): 4 µM; MBC with ZnCl2 (S. aureus ATCC 29213): 4 µM; MBC, control (S. aureus ATCC 29213): 4 µM
AKLWLKAAKLWLKAAKLWLKAAKLWLKA-NH2 [AA4] | 32 | 8 | 0.03 | 32 | 32 | 1 | 0.03 | 0.03 | 128 | 32 | 8 | 8 | 4 | 8 | 8 | 64 | 4 | 8 | 128 | 32 | MBC with KCl (S. aureus ATCC 29213): 32 µM; MBC with MgCl2 (S. aureus ATCC 29213): 32 µM; MBC with NH4Cl (S. aureus ATCC 29213): 32 µM; MBC with NaCl (S. aureus ATCC 29213): 32 µM; MBC with ZnCl2 (S. aureus ATCC 29213): 32 µM; MBC, control (S. aureus ATCC 29213): 32 µM
GKLWLKGGKLWLKG-NH2 [GG2] | 32 | 4 | 5.66 | 128 | 128 | >128 | 2.52 | 12.70 | 64 | 64 | 16 | 4 | 4 | 16 | 4 | >128 | 4 | 4 | >128 | 128 | FIC index in combination with Ceftazidime (E. coli ATCC 25922 [8]): 2; FIC index in combination with Chloramphenicol (E. coli ATCC 25922 [8]): 1; FIC index in combination with Ciprofloxacin (E. coli ATCC 25922 [8]): 2; FIC index in combination with Streptomycin (E. coli ATCC 25922 [8]): 1; MBC with KCl (S. aureus ATCC 29213): 128 µM; MBC with MgCl2 (S. aureus ATCC 29213): >128 µM; MBC with NH4Cl (S. aureus ATCC 29213): 128 µM; MBC with NaCl (S. aureus ATCC 29213): >128 µM; MBC with ZnCl2 (S. aureus ATCC 29213): 128 µM; MBC, control (S. aureus ATCC 29213): 128 µM
GKLWLKGGKLWLKGGKLWLKGGKLWLKG-NH2 [GG4] | 8 | 4 | 0.40 | >128 | 128 | 16 | 0.10 | 1.59 | 32 | 128 | 4 | 4 | 4 | 4 | 4 | 4 | 4 | 4 | – | – | –
GLWKGKLGLWKGKLGLWKGKL-NH2 [GG3s2] | 4 | 4 | 10.08 | 64 | 128 | >128 | 3.17 | 32 | 32 | 64 | – | – | – | – | – | – | – | – | – | – | –
